Assay results published in article PMC12021657, “Rapid traversal of vast chemical space using machine learning-guided docking screens” (Nature Computational Science, 2025).
Where two headings read alike, the source gives them in different places.

Columns and labels:
Human A2AR = molecular target: T1, Human A2AR (Homo sapiens, UniProt P29274); assay: Human A2AR competition radioligand binding ([3H]-ZM241385, HeLa-A2A membranes); conditions: for A2AR radioligand displacement at 20 µM (%): 20 µM compound, mean ± SEM of two technical replicates
T1 construct: expressed in transfected cells; host or cells: HeLa-A2A cell line (membranes prepared in house, lot A003/14-04-2019)
Experimental: (§1) Screening compounds (Supplementary Tables 10 and 12) were purchased from Enamine (compound purity >90%, which was confirmed by liquid chromatography−mass spectrometry and ^1H NMR spectroscopy for identified ligands; Supplementary Figs. 19–30). Human D2R competition binding experiments were carried out in polypropylene 96-well plates. Each well contained 20 µg of membranes from a CHO-D2R #S20 cell line (protein concentration of 4,322 µg ml^−1), 1.5 nM [^3H]-spiperone (54.3 Ci mmol^−1, 1 mCi ml^−1, PerkinElmer NET1187250UC) and the compound studied. Non-specific binding was determined in the presence of 10 µM sulpiride (Sigma Aldrich S8010). The reaction mixture (250 µl per well) was incubated at 25 °C for 120 min, after which 200 µl was transferred to a GF/C 96-well plate (Millipore) pretreated with 0.5% PEI and treated with binding buffer (50 mM Tris-HCl, 1 mM EDTA, 5 mM MgCl2, 5 mM KCl, 120 mM NaCl, pH 7.4). The reaction mixture was filtered and washed 4 times with 250 µl wash buffer (50 mM Tris-HCl, 0.9% NaCl, pH 7.4) before the addition of 30 μl Universol. The final measurement was performed in a microplate beta scintillation counter (Microbeta Trilux, PerkinElmer). Human A2AR competition binding experiments were carried out in a multiscreen GF/C 96-well plate (Millipore) pretreated with binding buffer (Tris-HCl 50 mM, EDTA 1 mM, MgCl2 10 mM, 2 U ml^−1 adenosine deaminase, pH 7.4). Each well was incubated with 5 μg of membranes from the HeLa-A2A cell line and prepared in our laboratory (lot A003/14-04-2019, protein concentration 2,058 μg ml^−1), 1 nM [^3H]-ZM241385 (50 Ci mmol^−1, 1 mCi ml^−1, ARC-ITISA 0884), and the compounds studied and standards. Non-specific binding was determined in the presence of NECA 50 μM (Sigma E2387). The reaction mixture (total volume of 200 μl per well) was incubated at 25 °C for 30 min, then filtered and washed 4 times with 250 μl wash buffer (Tris-HCl 50 mM, EDTA 1 mM, MgCl2 10 mM, pH 7.4), and measured in a microplate beta scintillation counter (Microbeta Trilux, PerkinElmer). Unless stated otherwise, three independent experiments were carried out to calculate Ki values.

Human D2R [1] = molecular target: T2, Human D2R (Homo sapiens, UniProt P14416); assay: Human D2R competition radioligand binding ([3H]-spiperone, CHO-D2R #S20 membranes); conditions: for Ki: mean ± SEM from three independent experiments
T2 construct: expressed in transfected cells
Experimental: as §1

Human D2R [2] = molecular target: T2, Human D2R; assay: Human D2R functional cAMP assay (HTRF, CHO-D2 #S20 cells, forskolin); format: cell-based
Experimental: Human D2R activity was measured by determining the amount of cAMP produced. Human D2R functional experiments were carried out in a CHO-D2 #S20 cell line. Five-thousand cells were seeded in 30 μl of Optimem (Invitrogen 11058) + 500 μM IBMX (Sigma 17018) on a 96-well black-and-white isoplate (PerkinElmer 6005030). Test compounds and dopamine were added in their corresponding wells and incubated for 10 min at 37 °C with gentle stirring (150 r.p.m.). Then, 10 µM forskolin (Sigma 17018) was added and incubated for 5 min at 37 °C with gentle stirring (150 r.p.m.). Reagents from the kit (#CISBIO 62AM4PEC) were added and incubated for 1 h at room temperature with gentle stirring (90 r.p.m.) and protected from light. HTRF (excitation wavelength: 320 nm; emission wavelengths: 620–665 nm) from each well was measured using a Tecan Infinite M1000 Pro. Two independent experiments were carried out to calculate EC50 and Emax values.

[3] = xlsx sheet A2AR_Displacement, read-out: Ki (A2AR) printed in column Displacement at 20 uM (%)

T1 sequence (P29274 whole entry): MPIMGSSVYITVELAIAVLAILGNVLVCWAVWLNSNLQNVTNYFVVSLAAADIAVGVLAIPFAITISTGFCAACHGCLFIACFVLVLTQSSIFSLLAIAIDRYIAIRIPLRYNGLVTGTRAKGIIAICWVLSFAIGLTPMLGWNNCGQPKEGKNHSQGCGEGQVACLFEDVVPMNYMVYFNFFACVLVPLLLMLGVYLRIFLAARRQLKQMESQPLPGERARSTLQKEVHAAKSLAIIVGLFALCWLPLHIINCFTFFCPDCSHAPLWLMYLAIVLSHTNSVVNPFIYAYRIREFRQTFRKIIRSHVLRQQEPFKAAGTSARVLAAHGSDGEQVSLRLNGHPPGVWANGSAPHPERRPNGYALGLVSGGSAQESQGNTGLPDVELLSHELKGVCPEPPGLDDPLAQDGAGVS
T2 sequence (P14416 whole entry): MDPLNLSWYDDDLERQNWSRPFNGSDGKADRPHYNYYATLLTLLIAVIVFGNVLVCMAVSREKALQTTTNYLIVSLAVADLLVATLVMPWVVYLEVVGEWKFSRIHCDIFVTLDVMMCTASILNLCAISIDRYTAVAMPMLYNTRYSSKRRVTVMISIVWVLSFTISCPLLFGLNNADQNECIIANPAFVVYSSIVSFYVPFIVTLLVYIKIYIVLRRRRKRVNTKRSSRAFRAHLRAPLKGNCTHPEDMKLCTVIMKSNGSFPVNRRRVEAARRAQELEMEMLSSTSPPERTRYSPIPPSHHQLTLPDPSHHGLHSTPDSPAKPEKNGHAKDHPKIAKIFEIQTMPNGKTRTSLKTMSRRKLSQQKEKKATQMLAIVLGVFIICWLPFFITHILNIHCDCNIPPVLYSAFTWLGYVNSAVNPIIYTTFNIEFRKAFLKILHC

A2AR radioligand displacement at 20 µM (%) (Human A2AR) | SMILES | further results
2±2% | Cc1nc(NC(=O)C(N)Cc2cccc(Br)n2)[nH]c1C (stereo not drawn) [Z6382061841, Cc1c(nc([nH]1)NC(=O)C(Cc2cccc(n2)Br)N)C] | –
– | O=C(CN1CC[C@H](Oc2ccccc2)C1)c1c[nH]c2nc(Cl)ccc12 [Compound 4, c1ccc(cc1)O[C@H]2CCN(C2)CC(=O)c3c[nH]c4c3ccc(n4)Cl] | Ki (Human A2AR; [3]): 1400 nM
– | CCOC(=O)c1cccc2[nH]c(NC(=O)C(N)Cc3ccco3)nc12 (stereo not drawn) [Compound 6, CCOC(=O)c1cccc2c1nc([nH]2)NC(=O)C(Cc3ccco3)N] | Ki (Human A2AR; [3]): 1300 nM
6±2% | Cc1ccc(NCCNC(=O)C2Cc3c(C)cccc3CN2)nc1 (stereo not drawn) [Z8854579335, Cc1ccc(nc1)NCCNC(=O)C2Cc3c(cccc3CN2)C] | –
22±5% | NC(=NCCc1ccccc1OC(F)(F)F)Nc1ncccn1 [Z8854579353, c1ccc(c(c1)CCN=C(N)Nc2ncccn2)OC(F)(F)F] | –
2±1% | CCc1ccnc(NCC2CN(Cc3ccccc3)CC2C)n1 (stereo not drawn) [Z5471612810, CCc1ccnc(n1)NCC2CN(CC2C)Cc3ccccc3] | –
3±2% | NC(Cc1ccccc1Cl)C(=O)N1CC(C(=O)Nc2nccs2)C1 (stereo not drawn) [Z6437654059, c1ccc(c(c1)CC(C(=O)N2CC(C2)C(=O)Nc3nccs3)N)Cl] | –
16±4% | NC(=NCCc1c(F)cccc1Cl)Nc1ncccn1 [Z8854579358, c1cc(c(c(c1)Cl)CCN=C(N)Nc2ncccn2)F] | –
– | Cc1cnccc1CCN1CCC(Oc2ccccc2Cl)C1 (stereo not drawn) [Compound 2, Cc1cnccc1CCN2CCC(C2)Oc3ccccc3Cl] | D2R radioligand displacement at 10 µM (%) (Human D2R [1]; 10 µM compound, mean ± SEM of two technical replicates, listed as Z2436421891): 56 ± 2%; inhibition at 10 µM (Human D2R [1]; 2 h, 10 µM compound, mean ± SEM of two technical replicates, read-out: D2R radioligand displacement at 10 µM (%)): 56 ± 2%; Ki (Human D2R [1]): 3.8 µM; EC50 (Human D2R [2]): 14 µM; functional character at D2R (Human D2R [2]; cAMP assay): full agonists; Emax (Human D2R [2]; read-out: Emax (maximal effect)): 100%
31±1% | Cc1cccc2[nH]c(NC(=O)C(N)Cc3csc4ccccc34)nc12 (stereo not drawn) [Z8854579351, Cc1cccc2c1nc([nH]2)NC(=O)C(Cc3csc4c3cccc4)N] | –
14±1% | NC(=NCCc1ccc(F)cc1F)Nc1ncccn1 [Z8854579368, c1cnc(nc1)NC(=NCCc2ccc(cc2F)F)N] | –
2±3% | NC(=NCCOc1ccc(F)cc1F)Nc1ncccn1 [Z8854579369, c1cnc(nc1)NC(=NCCOc2ccc(cc2F)F)N] | –
10±2% | Cn1ccc(NC(=O)CNC(=O)C2Cc3c(Br)cccc3CN2)n1 (stereo not drawn) [Z8854579367, Cn1ccc(n1)NC(=O)CNC(=O)C2Cc3c(cccc3Br)CN2] | –
28±1% | NC(=NCCc1cccc(Br)c1)Nc1ncccn1 [Z8854579355, c1cc(cc(c1)Br)CCN=C(N)Nc2ncccn2] | –
17±4% | NC(=NCCCc1ccc(F)cc1)Nc1ncccn1 [Z8854579364, c1cnc(nc1)NC(=NCCCc2ccc(cc2)F)N] | –
19±1% | Cc1cc(NC(=O)c2cccn2CCN2CCOCC2)ns1 [Z3591989733, Cc1cc(ns1)NC(=O)c2cccn2CCN3CCOCC3] | –
1±1% | Cc1cccc2c1CC(C(=O)NCCNc1ncccn1)NC2 (stereo not drawn) [Z8854579354, Cc1cccc2c1CC(NC2)C(=O)NCCNc3ncccn3] | –
32±4% | NC(=NCc1ccsc1-n1cccc1)Nc1ncccn1 [Z8854579347, c1ccn(c1)c2c(ccs2)CN=C(N)Nc3ncccn3] | –
26±3% | NC(=NCCOc1ccc(F)c(Cl)c1)Nc1ncccn1 [Z8854579360, c1cnc(nc1)NC(=NCCOc2ccc(c(c2)Cl)F)N] | –
12±4% | COc1ccc(CCN=C(N)Nc2ncccn2)c(F)c1 [Z8854579362, COc1ccc(c(c1)F)CCN=C(N)Nc2ncccn2] | –
20±1% | NC(=NCCc1c(F)cccc1Br)Nc1ncccn1 [Z8854579363, c1cc(c(c(c1)Br)CCN=C(N)Nc2ncccn2)F] | –
29±4% | NC(=NCCc1ccccc1Cl)Nc1ncccn1 [Z8854579337, c1ccc(c(c1)CCN=C(N)Nc2ncccn2)Cl] | –
15±1% | Cc1ccc(F)c(CCN=C(N)Nc2ncccn2)c1 [Z8854579366, Cc1ccc(c(c1)CCN=C(N)Nc2ncccn2)F] | –
57±4% | Cc1cccc2[nH]c(NC(=O)C(N)Cc3cccc(Cl)c3)nc12 (stereo not drawn) [Z8854579352, Cc1cccc2c1nc([nH]2)NC(=O)C(Cc3cccc(c3)Cl)N] | –
– | Cc1cccc(CC(N)C(=O)Nc2nc3c(Br)cc(F)cc3[nH]2)c1 (stereo not drawn) [Compound 3, Cc1cccc(c1)CC(C(=O)Nc2[nH]c3cc(cc(c3n2)Br)F)N] | Ki (Human A2AR; [3]): 2500 nM
32±2% | NC(=NCc1c(Cl)cccc1Cl)Nc1ncccn1 [Z8861112994, c1cc(c(c(c1)Cl)CN=C(N)Nc2ncccn2)Cl] | –
3±2% | Cc1ccncc1CNC(=O)C(N)Cc1c[nH]c2ncccc12 (stereo not drawn) [Z8857701713, Cc1ccncc1CNC(=O)C(Cc2c[nH]c3c2cccn3)N] | –
– | NC(=NCCc1c[nH]c2c(Cl)cc(Cl)cc12)Nc1ncccn1 [Compound 5, c1cnc(nc1)NC(=NCCc2c[nH]c3c2cc(cc3Cl)Cl)N] | Ki (Human D2R [1]): 14 µM; Ki (Human A2AR; fit to concentration-response curve from two technical replicates, compound 5 three independent experiments (mean ± SEM), read-out: Ki (A2AR)): ~20000 nM
1±2% | O=C(Nc1ncccn1)C1CCN(CC(O)C2CCC2)CC1 (stereo not drawn) [Z3292775568, c1cnc(nc1)NC(=O)C2CCN(CC2)CC(C3CCC3)O] | –
17±1% | NC(=NCCOc1ccc(F)cc1)Nc1ncccn1 [Z8854579344, c1cnc(nc1)NC(=NCCOc2ccc(cc2)F)N] | –

SMILES | A2AR radioligand displacement at 20 µM (%) (Human A2AR) | further results
O=c1[nH]c(NCC2CCN(CCc3ccccc3)C2)nc2ccsc12 (stereo not drawn) [Z5332306614, c1ccc(cc1)CCN2CCC(C2)CNc3[nH]c(=O)c4c(n3)ccs4] | 8±1% | –
O=C(NCc1nccc(=O)[nH]1)C1CCCN1Cc1ccccc1 (stereo not drawn) [Z4219981720, c1ccc(cc1)CN2CCCC2C(=O)NCc3[nH]c(=O)ccn3] | 6±4% | –
CC(Cc1c[nH]c2ncccc12)NCc1nn(C)c2ccccc12 (stereo not drawn) [Z7272600070, CC(Cc1c[nH]c2c1cccn2)NCc3c4ccccc4n(n3)C] | 20±1% | –
NC(=NCc1nc(-c2ccccc2)n[nH]1)Nc1ccccn1 [Z2518713795, c1ccc(cc1)c2nc([nH]n2)CN=C(N)Nc3ccccn3] | 23±3% | –
CSc1ccc(CCN=C(N)Nc2ncccn2)cc1 [Z8854579356, CSc1ccc(cc1)CCN=C(N)Nc2ncccn2] | 15±1% | –
CCc1ccc(CNCCc2c[nH]c3c(OC)cccc23)nc1 [Z3765568162, CCc1ccc(nc1)CNCCc2c[nH]c3c2cccc3OC] | 16±4% | –
Cc1ccc(C[C@H](N)CC(=O)Nc2nc3c(C)cccc3[nH]2)cc1 [Z8854579350, Cc1ccc(cc1)C[C@@H](CC(=O)Nc2[nH]c3cccc(c3n2)C)N] | 30±3% | –
COc1cc(CNC(C)Cc2c[nH]c3ncccc23)ncc1C (stereo not drawn) [Z7326877935, Cc1cnc(cc1OC)CNC(C)Cc2c[nH]c3c2cccn3] | 13±2% | –
N[C@@H](CC(=O)Nc1nc2c(Br)cc(F)cc2[nH]1)Cc1ccccc1 [Z8854579338, c1ccc(cc1)C[C@H](CC(=O)Nc2[nH]c3cc(cc(c3n2)Br)F)N] | 49±2% | –
